Consider one molecule from paper PMC4177392, “Modulation of Cytochrome P450 Metabolism and Transport across Intestinal Epithelial Barrier by Ginger Biophenolics” (PLoS ONE, 2014).

Structures are written as SMILES. Values after ≈ are worked out from the molar mass of the structure shown.

The target in series [1] is CYP2E1 (Homo sapiens, UniProt P05181). Kind of series: CYP2E1 inhibition in human liver microsomes (substrate chlorzoxazone). The note with it: human liver microsomes, substrate chlorzoxazone, positive control. The procedure:
Stock solution for each CYP specific probe substrate was prepared in such a way that the final concentration is below the reported Km value.
A microsome-buffer-substrate mixture (MBS mix) was prepared for each isozyme by pre-mixing appropriate volumes of sodium phosphate buffer (pH 7.4, 50 mM), microsomes and substrate (Table S2 in File S1). 179 µL of MBS mix was transferred to 96-well reaction plate to which 1 µL of inhibitor stock solution was added to achieve the final target inhibitor concentration. The reaction plate was pre-incubated for 10 min at 37°C followed by reaction initiation by addition of 20 µL of 10 mM NADPH solution. The reaction plate was then incubated at 37°C for a predetermined time period following which it was quenched with 200 µL ACN for all CYPs and 200 µL 1% formic acid in water∶ACN (70∶30) for CYP1A2. In all cases, the final incubations after addition of substrate and inhibitor contained 0.1% DMSO (v/v), and the total organic solvent (DMSO and ACN) content was less than or equal to 1% (v/v). The details of final substrate concentration, incubation time, microsomal protein concentration in the reaction mixtures and the metabolites monitored for each isozyme tested are presented in Table S3 in File S1.
All samples were processed using protein precipitation method and analyzed by employing positive (for all CYPs) and negative (for CYP2A6, 2C19 and 2E1) ionization mode in liquid chromatography tandem mass spectrometry (API4000, Applied Biosystems, USA). The peak area ratio of analyte to IS was used for calculations. An isocratic method comprising 5 mM ammonium formate and ACN (40∶60) with 0.05% formic acid was used for elution. For CYP2C19, a mobile phase consisting of 5 mM ammonium formate and ACN (30∶70) was used. The analytes and internal standards were retained on BDS Hypersil Phenyl (150×4.6 mm, 5 µ, Thermo, USA) column. A flow rate of 0.5 mL/min (CYP1A2), 0.6 mL/min (CYP2C19, CYP2E1), 0.7 mL/min (CYP2C9), 0.8 mL/min (CYP2A6, CYP3A), 1.0 mL/min (CYP2B6, CYP2C8, CYP2D6) was maintained using Shimadzu Prominence solvent delivery system (LC-20AD). The mobile phase was degassed using degasser (DGU-20A3), samples were loaded into autosampler (SIL-HTc) and the column temperature was maintained at 40°C by column oven (CTO-20A). Injection volumes for the samples were as follows: 5 µL (CYP1A2, CYP2D6, and CYP3A), 10 µL (CYP2B6, CYP2C8, and CYP2E1) and 20 µL (CYP2A6, CYP2C9, and CYP2C19). Data was collected and processed using Sciex Analyst 1.4.2. All the structures of inhibitors, substrates, metabolites and internal standards for each CYP enzyme are represented in Table S6 in File S1.
The IC50 value was estimated from the percentage reduction in CYP activity at eleven inhibitor concentrations with respect to control.
The data was analysed using 4PL (parameter logistic model), 3PLFB (bottom fixed), 3PLFT (top fixed), 2PL (top and bottom fixed), and the relative IC50 was with lowest standard error was further manipulation. Absolute IC50 was calculated from this relative IC50 by using the equation below: [drawing 3]
For orientation: Liver microsomes are vesicles of endoplasmic reticulum, rich in cytochrome P450 enzymes.

The target of series [2] is T1, CYP2A6 (Homo sapiens, UniProt P11509).
T1 sequence (P11509 1-494): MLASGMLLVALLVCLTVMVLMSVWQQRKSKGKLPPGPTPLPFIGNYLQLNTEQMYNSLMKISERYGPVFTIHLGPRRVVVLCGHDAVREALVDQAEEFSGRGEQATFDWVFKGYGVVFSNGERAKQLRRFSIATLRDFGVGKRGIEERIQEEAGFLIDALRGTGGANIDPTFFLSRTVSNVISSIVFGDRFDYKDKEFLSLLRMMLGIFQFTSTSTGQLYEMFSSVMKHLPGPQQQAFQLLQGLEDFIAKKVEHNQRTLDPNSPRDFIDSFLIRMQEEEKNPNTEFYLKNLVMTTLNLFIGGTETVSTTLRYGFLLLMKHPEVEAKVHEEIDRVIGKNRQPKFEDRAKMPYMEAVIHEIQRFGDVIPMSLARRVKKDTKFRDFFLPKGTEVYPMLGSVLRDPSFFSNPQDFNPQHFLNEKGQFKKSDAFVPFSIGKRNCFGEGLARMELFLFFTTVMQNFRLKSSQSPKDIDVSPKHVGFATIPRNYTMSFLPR
Kind of series: CYP2A6 inhibition in human liver microsomes (substrate coumarin). It counts as in vitro ADME.
Method: The highest concentration of GE used in the assay was 500 µg/mL equivalent. Stock solution for each CYP specific probe substrate was prepared in such a way that the final concentration is below the reported Km value.
A microsome-buffer-substrate mixture (MBS mix) was prepared for each isozyme by pre-mixing appropriate volumes of sodium phosphate buffer (pH 7.4, 50 mM), microsomes and substrate (Table S2 in File S1). 179 µL of MBS mix was transferred to 96-well reaction plate to which 1 µL of inhibitor stock solution was added to achieve the final target inhibitor concentration. The reaction plate was pre-incubated for 10 min at 37°C followed by reaction initiation by addition of 20 µL of 10 mM NADPH solution. The reaction plate was then incubated at 37°C for a predetermined time period following which it was quenched with 200 µL ACN for all CYPs and 200 µL 1% formic acid in water∶ACN (70∶30) for CYP1A2. In all cases, the final incubations after addition of substrate and inhibitor contained 0.1% DMSO (v/v), and the total organic solvent (DMSO and ACN) content was less than or equal to 1% (v/v). […] The incubations were performed in singlet for individual gingerols and in duplicate for GE along with respective positive controls.

Sequence of CYP2E1 (P05181 whole entry): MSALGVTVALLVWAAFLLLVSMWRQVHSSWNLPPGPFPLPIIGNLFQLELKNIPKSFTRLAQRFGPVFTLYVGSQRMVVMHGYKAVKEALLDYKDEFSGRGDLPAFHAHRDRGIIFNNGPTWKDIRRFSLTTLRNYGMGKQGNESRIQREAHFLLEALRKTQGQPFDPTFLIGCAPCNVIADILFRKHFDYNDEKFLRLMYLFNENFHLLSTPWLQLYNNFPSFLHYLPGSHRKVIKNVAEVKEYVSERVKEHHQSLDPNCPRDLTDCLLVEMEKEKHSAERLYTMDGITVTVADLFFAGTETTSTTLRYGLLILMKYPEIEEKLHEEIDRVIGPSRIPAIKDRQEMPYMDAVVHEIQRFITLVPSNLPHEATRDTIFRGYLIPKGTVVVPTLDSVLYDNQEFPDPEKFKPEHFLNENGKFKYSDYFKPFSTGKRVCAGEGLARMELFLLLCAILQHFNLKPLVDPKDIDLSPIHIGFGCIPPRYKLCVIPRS

With `N[C@@H]1C[C@H]1c1ccccc1` (racemic) [Tranylcypromine, reference compound], the “IC50 CYP2E1” value in series [1] was 0.5793 µg/mL (≈ 4.35 µM); in series [1] (listed as tranylcypromine), 0.579 µg/mL (≈ 4.35 µM). Also, in series [2] (human liver microsomes, substrate coumarin, positive control), the “IC50 CYP2A6” value worked out at 0.0084 µg/mL (≈ 0.0631 µM). Further, in series [2] (positive control vs test compounds), the “CYP2A6 inhibition, fold more effective than the test compounds” value is on record as around 4000 fold.
